“And” between values parts separate entries of the source, which are not always exact repeats. Equal values may be shown once.
Tested on: 186277-243-T-J2-PDC spheroids with HUVEC/MSC, viability
Test: Anticancer human tumor 186277-243-T-J2-PDC patient-derived colon adenocarcinoma cell line growth inhibition [CLK]
Conditions: for viability, T/C: stronger effect = lower value
Procedure, shortened: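 Multi-cell-type spheroids combined patient-derived tumor cells with HUVEC endothelial cells and human mesenchymal stem cells. Paired agents were dosed in half-log steps down from about clinical Cmax, or from 10 microM where Cmax was unknown.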
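Note: compound exposure lasted seven days before readout.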
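Throughout, for viability, T/C: 100% = DMSO vehicle control wells.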

CC(Nc1ccc2c(c1)OCCn1cc(N3C(=O)OCC3C(F)F)nc1-2)C(N)=O (centres undefined) + CNC(=O)c1ccc(Nc2nc(OC3CCCC3)c3c(-c4ccc5nc(C)oc5c4)c[nH]c3n2)c(OC)c1
IC50 (curve of first compound, second compound 0.0316 µM): 1790 nM | IC50 (curve of first compound, second compound 0.1 µM): 41.7 nM | IC50 (curve of first compound, second compound 0.316 µM): < 31.6 nM | IC50 (curve of first compound, second compound 1 µM): < 31.6 nM | IC50 (curve of first compound, second compound 3.16 µM): < 31.6 nM | IC50 (curve of first compound, second compound 10 µM): < 31.6 nM | viability, T/C (second compound 0.0316 µM, first compound 0.0316 µM): 86.1% | viability, T/C (second compound 0.0316 µM, first compound 0.1 µM): 93.9% | viability, T/C (second compound 0.0316 µM, first compound 0.316 µM): 63.2% | viability, T/C (second compound 0.0316 µM, first compound 1 µM): 57.6% | viability, T/C (second compound 0.0316 µM, first compound 3.16 µM): 46.6% | viability, T/C (second compound 0.0316 µM, first compound 10 µM): 30.5% | viability, T/C (second compound 0.1 µM, first compound 0.0316 µM): 53.9% | viability, T/C (second compound 0.1 µM, first compound 0.1 µM): 39.9% | viability, T/C (second compound 0.1 µM, first compound 0.316 µM): 35.2% | viability, T/C (second compound 0.1 µM, first compound 1 µM): 29.4% | viability, T/C (second compound 0.1 µM, first compound 3.16 µM): 20.1% | viability, T/C (second compound 0.1 µM, first compound 10 µM): 14.7% | viability, T/C (second compound 0.316 µM, first compound 0.0316 µM): 30.4% | viability, T/C (second compound 0.316 µM, first compound 0.1 µM): 24.3% | viability, T/C (second compound 0.316 µM, first compound 0.316 µM): 16.9% | viability, T/C (second compound 0.316 µM, first compound 1 µM): 11.4% | viability, T/C (second compound 0.316 µM, first compound 3.16 µM): 10.2% | viability, T/C (second compound 0.316 µM, first compound 10 µM): 7.7% | viability, T/C (second compound 1 µM, first compound 0.0316 µM): 20.6% | viability, T/C (second compound 1 µM, first compound 0.1 µM): 16.4% | viability, T/C (second compound 1 µM, first compound 0.316 µM): 12.4% | viability, T/C (second compound 1 µM, first compound 1 µM): 11.2% | viability, T/C (second compound 1 µM, first compound 3.16 µM): 7.78% | viability, T/C (second compound 1 µM, first compound 10 µM): 6.87% | viability, T/C (second compound 3.16 µM, first compound 0.0316 µM): 20.8% | viability, T/C (second compound 3.16 µM, first compound 0.1 µM): 15% | viability, T/C (second compound 3.16 µM, first compound 0.316 µM): 11.1% | viability, T/C (second compound 3.16 µM, first compound 1 µM): 10.6% | viability, T/C (second compound 3.16 µM, first compound 3.16 µM): 7.84% | viability, T/C (second compound 3.16 µM, first compound 10 µM): 5.24% | viability, T/C (second compound 10 µM, first compound 0.0316 µM): 24.5% | viability, T/C (second compound 10 µM, first compound 0.1 µM): 19.6% | viability, T/C (second compound 10 µM, first compound 0.316 µM): 10.9% | viability, T/C (second compound 10 µM, first compound 1 µM): 9.69% | viability, T/C (second compound 10 µM, first compound 3.16 µM): 6.97% | viability, T/C (second compound 10 µM, first compound 10 µM): 4.12%

CCN1CCN(Cc2ccc(Nc3ncc(F)c(-c4cc(F)c5nc(C)n(C(C)C)c5c4)n3)nc2)CC1
viability, T/C (compound 0.00316 µM): 81% and 102% | viability, T/C (compound 0.01 µM): 94.2% and 98.3% | viability, T/C (compound 0.0316 µM): 103% and 120% | viability, T/C (compound 0.1 µM): 121% and 116% | viability, T/C (compound 0.316 µM): 120% and 131% | viability, T/C (compound 1 µM): 117% and 107% | IC50 (curve of compound): > 1000 nM

Source: PubChem BioAssay AID2060625 (Molecular Pharmacology Branch, DTP, NCI, 2025)
